Like-named read-outs stand apart in the source and are kept apart here.
Columns and labels:
[1] = tested on: GABA-A receptors (GABAAR); test: GABA-activated chloride current (IGABA), whole-cell patch clamp in isolated cerebellar Purkinje cells
Procedure: (§1) First, the ability of steroids to affect the holding current at the voltage-clamp regime was tested. […] Next, the influence of all of the compounds on IGABA and IGly was evaluated. […] The latter effect was quantified by the change in the time constant of the IGly decay (IGly τdes).
(§2) The cells were isolated from rat brain slices as described in detail elsewhere.[47] Briefly, the slices (200–500 μm) of Wistar rat (11–14 days of age) hippocampus or cerebellum were incubated at room temperature for at least 2 h in a solution containing the following components (in mM): 124 NaCl, 3 KCl, 2 CaCl2, 2 MgSO4, 25 NaHCO3, 1.3 NaH2PO4, and 10 D-glucose, pH 7.4. The saline was continuously stirred and bubbled with carbogen (95% O2 + 5% CO2). Single pyramidal neurons from the hippocampal CA3 area or Purkinje cells from sagittal slices of the cerebellum were isolated by a vibrating fused glass pipet with a spherical tip.
(§3) Transmembrane currents were recorded using a conventional patch-clamp technique in the whole-cell configuration. […] The solution in the recording pipet contained the following (in mM): 40 CsF, 100 CsCl, 0.5 CaCl2, 5 EGTA, 3 MgCl2, 4 NaATP, 5 HEPES, pH 7.3. The composition of the extracellular solution was as follows (in mM): 140 NaCl, 3 KCl, 3 CaCl2, 3 MgCl2, 10 D-glucose, 10 HEPES hemisodium, pH 7.4. The speed of perfusion was 0.6 mL/min. Recording of the currents was performed using an EPC7 patch-clamp amplifier (HEKA Elektronik, Germany). The holding potential was maintained at −70 mV. Transmembrane currents were filtered at 3 kHz, stored, and analyzed with IBM-PC computer, using homemade software.
(§4) Statistical analysis was performed with Prism Graphpad software. […] N = 6–8 cells from 3 animals for every average value. […] The EC50 value for steroid potentiation of the IGABA was determined using the equation: Y = Bottom + (Top – Bottom)/[1 + (EC50/C)^n], where Bottom and Top are current amplitudes measured in the control solution and in the presence of steroid, respectively, C is the concentration of steroid, EC50 is the half-maximal stimulating concentration, and n is the slope factor (Hill coefficient).

glycine receptors (GlyR) = test: Glycine-activated chloride current (IGly), whole-cell patch clamp in isolated hippocampal pyramidal neurons; details: for Ipeak max (maximum inhibition attainable) / IC50 / τdes max (maximum inhibition attainable) / normalized charge (Q) of IGly, maximum inhibition (max): 100 μM glycine; for Ipeak max (maximum inhibition attainable) / τdes max (maximum inhibition attainable) / normalized charge (Q) of IGly, maximum inhibition (max): fraction; for IGly peak, effect at 10 μM / IGly τdes, effect at 10 μM: steroid 10 μM coapplied with 100 μM glycine; for IGly peak, effect at 10 μM: hippocampal neurons; for IGly τdes, effect at 10 μM: time constant of IGly decay; for τdes max (maximum inhibition attainable): time constant of desensitization of IGly;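 for all read-outs here: rat CA3 hippocampal pyramidal cells, whole-cell voltage clamp held at −70 mV, steroids tested over 0.01–100 µM, 6–8 cells from 3 animals per mean value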
Procedure: as §1, §2, §3, §4

[2] = read-out: Ipeak IC50, peak amplitude of IGly
[3] = read-out: τdes IC50, acceleration of IGly desensitization
[4] = steroid 10 μM coapplied with GABA (2 or 5 μM), Purkinje cells
[5] = read-out: normalized charge (Q) of IGly, IC50, area under the IGly curve

Row | SMILES | Ipeak max (maximum inhibition attainable) (glycine receptors (GlyR); peak amplitude of IGly) | IC50 (glycine receptors (GlyR); [2]) [µM] | IC50 (glycine receptors (GlyR); [3]) [µM] | IGly peak, effect at 10 μM (glycine receptors (GlyR)) | IGly τdes, effect at 10 μM (glycine receptors (GlyR)) [%] | τdes max (maximum inhibition attainable) (glycine receptors (GlyR)) | IGABA peak, effect at 10 μM [1, 4] | IGABA peak, effect at 10 μM [1] | also measured
1 | C[C@]12CC[C@@H](O)C[C@H]1CC[C@@H]1[C@@H]2[C@@H](O)C[C@]2(C)[C@@H](C(=O)CO)CC[C@@H]12 [3α5β-CORT, 3α,11β,21-Trihydroxy-5β-pregnan-20-one] | 0.44 ± 0.1 | 23 ± 9.6 | 15.2 ± 6.2 | No effect | -24 | 0.56 ± 0.08 | – | – | IGABA peak amplitude, % of control [1]: 133 ± 8 % of the control; effect on maximal GABA current [1]: did not change; maximum effect (max) on IGABA [1]: 198 ± 11 % of the control; threshold concentration for potentiation of IGABA ([1]; 2 μM GABA): 10 µM; IGABA, % of control ([1]; 50 μM steroid, 2 μM GABA): 172 ± 18 % of control; IGABA, % of control ([1]; 50 μM steroid, 5 μM GABA): 139 ± 16 % of control
2 | C[C@]12C[C@H](O)[C@H]3[C@@H](CCC4=CC(=O)CC[C@@]43C)[C@@H]1CC[C@@H]2C(=O)CO [CORT, 11β,21-Dihydroxypregn-4-ene-3,20-dion] | 0.54 ± 0.1 | 12.6 ± 4.8 | 0.43 ± 0.05 | -26% | -64 | 0.64 ± 0.02 | No effect | – | –
3 | C[C@]12CCC(=O)C=C1CC[C@@H]1[C@@H]2C(=O)C[C@@]2(C)[C@H]1CC[C@]2(O)C(=O)CO [Cortisone, 17α,21-Dihydroxypregn-4-ene-3,11,20-trione] | 0.57 ± 0.1 | 13.6 ± 5.5 | 10.3 ± 3.4 | -25% | -24 | 0.48 ± 0.06 | No effect | – | –
4 | C[C@]12CC[C@@H](O)C[C@@H]1CC[C@@H]1[C@@H]2[C@@H](O)C[C@]2(C)[C@@H](C(=O)CO)CC[C@@H]12 [3α5α-CORT, 3α,11β,21-Trihydroxy-5α-pregnan-20-one] | 0.51 ± 0.1 | 11.8 ± 5.7 | 0.72 ± 0.03 | -26% | -54 | 0.59 ± 0.08 | – | – | IGABA, % of control [1]: 120 ± 16 % of control; effect on maximal GABA current [1]: did not change; maximum effect (max) on IGABA [1]: 420 ± 19 % of the control; potentiating effect on IGABA at higher GABA concentrations [1]: not observed; threshold concentration for potentiation of IGABA ([1]; 2 μM GABA): 5 µM; IGABA peak amplitude, % of control ([1]; 5 μM steroid, 2 μM GABA): 150 ± 8 % of the control; IGABA, % of control ([1]; 50 μM steroid, 2 μM GABA): 371 ± 16 % of control; IGABA, % of control ([1]; 50 μM steroid, 5 μM GABA): 156 ± 15 % of control
5 | NCC(=O)O [glycine] | – | – | – | – | – | – | – | – | EC50 (glycine receptors (GlyR); read-out: EC50 of glycine for IGly, 600–1000 ms application): 90 ± 7 µM
6 | C[C@]12CC[C@H]3[C@@H](CCC4=CC(=O)CC[C@@]43C)[C@@H]1CC[C@@H]2C(=O)CO [11-deoxy-CORT, 21-Hydroxypregn-4-ene-3,20-dione] | 0.67 ± 0.2 | 22.9 ± 9.4 | 12.2 ± 3.7 | No effect | -32 | 0.72 ± 0.08 | – | No effect | amplitude of IGABA, % of control (inhibition) [1]: 70 ± 3 % of the control; effect on IGly at low glycine (glycine receptors (GlyR); 1 μM steroid, 25 μM glycine (EC10)): did not affect; decrease in the peak amplitude of IGly (glycine receptors (GlyR); 50 μM steroid, 25 μM glycine (EC10)): 45 ± 7%
7 | C[C@]12CCC(=O)C[C@@H]1CC[C@@H]1[C@@H]2CC[C@]2(C)[C@@H](C(=O)CO)CC[C@@H]12 [5α-CORT, 21-Hydroxy-5α-pregnane-3,20-dione] | 0.86 ± 0.2 | 32 ± 12.6 | 0.71 ± 0.02 | No effect | -36 | 0.37 ± 0.04 | – | No effect | –
8 | CN1CCc2cc3c(cc2[C@H]1[C@@H]1OC(=O)c2c1ccc1c2OCO1)OCO3 [bicuculline] | – | – | – | – | – | – | – | – | effect on IGABA [1]: reversibly blocked
9 | C[C@]12CCC(=O)C=C1CC[C@@H]1[C@@H]2CC[C@@]2(C)[C@H]1CC[C@]2(O)C(=O)CO [11-Deoxycortisol, 17α,21-Dihydroxypregn-4-ene-3,20-dione] | 0.69 ± 0.2 | 21.4 ± 7.6 | 13.8 ± 6.3 | -26% | -21 | 0.50 ± 0.08 | No effect | – | amplitude of IGABA, % of control (inhibition) ([1]; 100 μM steroid, 5 μM GABA): 58 ± 5 % of the control
10 | C[C@]12CC[C@H](O)CC1=CCC1C2CC[C@@]2(C)C1CC[C@]2(O)C(=O)CO (stereo partly drawn) [17α,21-diOH-PREG, 3β,17α,21-Trihydroxypregn-5-en-20-one] | 0.45 ± 0.1 | 7.2 ± 2.6 | 0.39 ± 0.05 | -27% | -76 | 0.77 ± 0.03 | – | No effect | normalized charge (Q) of IGly, maximum inhibition (max) (glycine receptors (GlyR); area under the IGly curve): 0.52 ± 0.01; IC50 (glycine receptors (GlyR); [5]): 0.73 ± 0.06 µM
11 | C[C@]12CCC(=O)C=C1CC[C@@H]1[C@@H]2[C@@H](O)C[C@@]2(C)[C@H]1CC[C@]2(O)C(=O)CO [Cortisol, 11β,17α,21-Trihydroxypregn-4-ene-3,20-dione] | 0.49 ± 0.1 | 20.2 ± 9.8 | 0.63 ± 0.02 | -23% | -40 | 0.42 ± 0.05 | No effect | – | –
12 | C[C@]12CCC(=O)C[C@H]1CC[C@@H]1[C@@H]2CC[C@]2(C)[C@@H](C(=O)CO)CC[C@@H]12 [5β-CORT, 21-Hydroxy-5β-pregnane-3,20-dione] | 0.85 ± 0.3 | 29.3 ± 9.9 | 13.1 ± 5.8 | No effect | -27 | 0.61 ± 0.09 | – | No effect | normalized charge (Q) of IGly, maximum inhibition (max) (glycine receptors (GlyR); area under the IGly curve): 0.96 ± 0.15; IC50 (glycine receptors (GlyR); [5]): 37 ± 13 µM
